Reference: article PMC4175002, “The Design and Synthesis of Potent and Selective Inhibitors of Trypanosoma brucei Glycogen Synthase Kinase 3 for the Treatment of Human African Trypanosomiasis” (Journal of Medicinal Chemistry, 2014)

Key:
[1] = test system: endogenous TbGSK3 short; settings: parasite cell extracts; cited from earlier work
[2] = test system: MRC5 cells; test: MRC5 proliferation assay (resazurin); assay type: cell-based, human; settings: T. b. brucei versus MRC5 EC50
Experimental: Measurement of inhibition of the proliferation of MRC5 (human lung fibroblast) cells and T. b. brucei bloodstream stage cells was performed using a modification of the cell viability assay previously described.[33] Compounds (50 μM to 0.5 nM) were incubated with 2 × 10^3 cells/well in 0.2 mL of the appropriate culture medium (MEM with 10% fetal bovine serum for MRC5 cells) in clear 96-well plates. Plates were incubated at 37 °C in the presence of 5% CO2 for 69 h. Resazurin was then added to a final concentration of 50 μM, and plates were incubated as above for a further 4 h before being read on a BioTek flx800 fluorescent plate reader.

COc1cccc(OC)c1C(=O)Nc1c[nH]nc1C(=O)NC1CCC(OC)CC1 (centres unmarked) [Compound 4m, 4-(2,6-Dimethoxybenzamido)-N-(4-methoxycyclohexyl)-1H-pyrazole-3-carboxamide]
affinity for endogenous TbGSK3 short [1]: nanomolar affinity
selectivity over MRC5 cells [2]: 60 fold
